Source: US9962375B2, “Methyl-piperidine compounds useful for inhibiting microsomal prostaglandin E2 synthase-1” (Eli Lilly and Company, priority 2014, dated 2018)

Key:
[1] = tested on: PGE2 formation in human epithelial lung carcinoma cell line A549; assay: Cell Based Assay for Measuring Eicosanoid Selectivity (rhIL-1β induced PGE2 in A549 cells); conditions: 0.1 ng/mL rhIL-1β, approximately 18 hours, EIA, ±0.00301, n=2, read-out: IC50 for inhibition of PGE2 formation
Protocol: Cell Based Assay for Measuring Eicosanoid Selectivity
Human epithelial lung carcinoma cell line A549 is obtained from ATCC (CCL-185) and maintained in Kaighn's F12 cell culture medium+10% fetal bovine serum (FBS) (plating medium) under standard 5% CO2 humidified atmosphere at 37° C. The cells are passaged at 1:3 twice per week.
For the assays, cells are released from flasks by washing once with PBS, then once with Trypsin/EDTA. After 3-5 minutes at 37° C., the cells are suspended in plating medium and centrifuged at 2,000 rpm, 25° C., for 5 minutes. The supernatant is aspirated and the cell pellet is resuspended in F12K plating medium. The cell number is determined by counting an aliquot of cells which has been diluted in PBS and Trypan blue on a hemocytometer. Cells are plated at 40,000/well in 96 well Falcon plates 24 hours prior to treatment. Compounds are diluted in DMSO to 100× of the final concentration in Screen Mates tubes. The medium is removed from the cells and fresh medium (90 μL/well) is added to the cells. The compounds are added at 1 μL/well, n=2, to give seven concentrations each. Cells are pretreated with compounds for 30 minutes at 37° C., 5% CO2. […] After approximately 90-120 minutes at room temperature on an orbital shaker at 100 rpm, the plates are read at A412 on a plate reader. […]

[2] = tested on: PGE2 formation in human whole blood; assay: Human Whole Blood Assay (LPS induced PGE2); assay type: cell-based; conditions: 100 μg/mL LPS, 20-24 hours, LC/MS/MS, n=11, read-out: IC50 for inhibition of PGE2 formation in human whole blood
Protocol: Blood is collected from normal volunteer donors into sodium heparin VACUTAINER tubes. Donors are selected, in part, on their confirmation that they have not taken NSAIDs, aspirin, Celebrex®, or glucocorticoids within two weeks of the donation. All tubes/donor are pooled into 250 mL Corning conical centrifuge tubes and 436.5 μL/well is distributed into deep well polypropylene plates. Compounds are diluted in DMSO to 100× final and 4.5 μL/well in duplicate or triplicate is added to give 7 point curves. […] One hundred microliters is quantitatively transferred to Costar cluster tubes blocks and 400 μL/well of the MeOH stop reagent and internal standards, d4-PGE2, d4-PGF2α, and d4-TXA2β are added. […]
Solid phase extraction is performed using Waters HLB 30 mg/bed 96 well plates on a vacuum manifold: Step 1, the matrix is washed with MeOH (1 mL), followed by 0.1% formic acid in water (1 mL); Step 2, 400 μL sample is applied along with 0.1% formic acid in water (900 μL) and allowed to bind for 5 minutes; Step 3, the matrix is washed with 0.1% formic acid in water (600 μL), followed by 80/20 water/MeOH (600 μL); Step 4, the products are eluted with 2-500 μL volumes of EtOAc; Step 5 the samples are dried under nitrogen and reconstituted in 75/25 water/acetonitrile with 0.1% formic acid (50 μL). The products are analyzed by LC/MS/MS.

[3] = molecular target: T1, Human mPGES-1 (Homo sapiens, UniProt O14684); assay: Human mPGES-1 Enzyme Inhibition Assay; assay type: biochemical; conditions: microsomes from 293E cells, 1.67 μM PGH2, PGE2 by LC/MS; ±0.00064, n=17
T1 construct: host or cells: 293E cells (transient expression; microsomes prepared from cell pellets)
T1 sequence (O14684 1-152): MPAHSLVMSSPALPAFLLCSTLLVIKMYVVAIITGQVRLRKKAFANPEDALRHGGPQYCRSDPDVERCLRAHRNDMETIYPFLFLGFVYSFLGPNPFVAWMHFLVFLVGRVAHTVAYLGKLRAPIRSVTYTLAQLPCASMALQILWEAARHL
Protocol: Human mPGES-1 Enzyme Inhibition Assay
Human mPGES-1 (Invitrogen™ (Cat#97002RG, clone ID 6374722)) is subcloned into pcDNA3.1 and transiently expressed in 293E cells. Microsomes are prepared from cell pellets based on published methods (Oullet et al., Purification and characterization of recombinant microsomal prostaglandin E synthase-1, Protein Expression and Purification, 26 pp 489-495 (2002); and Thoren et al., Human Microsomal Prostanglandin E Synthase-1, J. Biol Chem. 278(25) pp 22199-22209 (2003)). Briefly, pellets are brought up in homogenization buffer (15 mM Tris-HCl, pH 8.0; 0.25 M sucrose; 0.1 mM EDTA; 1 mM glutathione) and sonicated 5×30 seconds on ice. Homogenate is centrifuged at 5,000×g for 10 minutes at 4° C. The supernatant fraction is decanted and loaded into Beckman Quick-Seal® tubes and centrifuged at 150,000×g. for 90 minutes at 4° C. The supernatant fraction is discarded by decantation and the pellets are re-suspended in assay buffer (10 mM sodium phosphate, pH 7.0; 10% glycerol; 2.5 mM glutathione; Complete Protease Inhibitor Cocktail (Roche)). Protein concentration is determined using the Pierce Coomassie Plus™ reagent.
For the enzyme assay, the microsomes are diluted into assay buffer and 14 μL/well of the resulting solution is added to 384 well assay plates. […]

Cc1cccc2ccc(N3CC[C@H](C(=O)N[C@H]4CCO[C@H](CO)C4)C(C)(C)C3)nc12 [Example 1, (S)-N-((2S,4S)-2-(Hydroxymethyl)tetrahydro-2H-pyran-4-yl)-3,3-dimethyl-1-(8-methylquinolin-2-yl)piperidine-4-carboxamide]
IC50 [1]: 4.71 nM | IC50 [2]: 2.05 ± 0.82 nM | IC50 [3]: 1.93 nM
